Results published in publication PMC5819996 (Cell chemical biology, 2017).

What was measured:
MBP-UbiB^CΔ47 = MBP-UbiB^CΔ47 (Escherichia coli, UniProt P0A6A0); experiment: malachite green ATPase assay; type: biochemical; settings: 100 μM ATP, 4 mM MgCl2, 1 mM Triton X-100 and 2-alkylphenols, pH 7.5, 30 °C
COQ8A^NΔ250 = COQ8A^NΔ250 (Homo sapiens, UniProt Q8NI60); experiment: malachite green ATPase assay; type: biochemical; settings: 100 μM ATP, 4 mM MgCl2, 1 mM Triton X-100 and 2-alkylphenols, pH 7.5, 30 °C
COQ8A^NΔ250, sequence (Q8NI60 251-647, stated change not applied): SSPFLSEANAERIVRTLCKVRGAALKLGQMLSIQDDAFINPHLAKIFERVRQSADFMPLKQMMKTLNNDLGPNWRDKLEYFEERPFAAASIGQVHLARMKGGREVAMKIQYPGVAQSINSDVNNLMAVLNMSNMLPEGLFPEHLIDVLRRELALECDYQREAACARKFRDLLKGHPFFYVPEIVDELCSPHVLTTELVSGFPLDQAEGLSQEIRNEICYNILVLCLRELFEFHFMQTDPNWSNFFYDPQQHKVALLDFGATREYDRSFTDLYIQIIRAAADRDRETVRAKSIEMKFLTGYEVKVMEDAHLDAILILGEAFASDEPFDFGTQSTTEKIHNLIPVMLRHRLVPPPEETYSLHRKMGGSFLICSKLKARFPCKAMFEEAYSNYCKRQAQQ

MBP-UbiB^CΔ47, sequence (P0A6A0 1-499, stated change not applied): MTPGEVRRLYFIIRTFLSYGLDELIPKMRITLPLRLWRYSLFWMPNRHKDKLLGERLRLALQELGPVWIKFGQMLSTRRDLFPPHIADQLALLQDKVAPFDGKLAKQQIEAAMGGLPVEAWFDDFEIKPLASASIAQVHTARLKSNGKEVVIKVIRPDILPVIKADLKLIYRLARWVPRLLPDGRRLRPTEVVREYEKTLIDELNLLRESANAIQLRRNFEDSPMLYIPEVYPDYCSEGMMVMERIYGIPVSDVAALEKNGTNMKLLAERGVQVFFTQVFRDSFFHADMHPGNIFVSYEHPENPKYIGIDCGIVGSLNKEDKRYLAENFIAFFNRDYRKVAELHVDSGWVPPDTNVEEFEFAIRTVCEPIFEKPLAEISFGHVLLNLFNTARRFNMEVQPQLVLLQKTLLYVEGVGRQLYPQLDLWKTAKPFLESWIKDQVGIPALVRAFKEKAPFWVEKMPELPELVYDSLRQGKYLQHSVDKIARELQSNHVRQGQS

## Nc1ncnc2c1ncn2[C@@H]1O[C@H](COP(=O)(O)OP(=O)(O)OP(=O)(O)O)[C@@H](O)[C@H]1O [ATP]
MBP-UbiB^CΔ47
  malachite green ATPase assay: 2-alkylphenols with Triton X-100 increase the ATPase activity of UbiB family members
COQ8A^NΔ250
  malachite green ATPase assay: 2-alkylphenols with Triton X-100 increase the ATPase activity of UbiB family members
